Patent US20240360122A1, “POLYMORPHIC FORMS AND SALTS OF A GLP-1R AGONIST” (Terns (Suzhou) Biotechnology Co., Ltd., priority 2023, published 2024)
Entries after “also recorded” stand apart in the source; their conditions may differ. Counter-ions that a name gives are not always drawn. Like-named read-outs stand apart in the source and are kept apart here.

How the values were obtained:
Format in all cases: physicochemical
[1] = Kinetic solubility in water and bio-relevant media (SGF, FaSSIF, FeSSIF) at 37° C.; settings: for S: Solubility: calculated by freeform; for FC: Form change: residual solids by XRPD; for solubility at 2 h: highest solubility
Method in brief: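 Compound rolled at 37 °C (~25 rpm) in water, SGF (pH 1.8, NaCl, Triton X-100), FaSSIF (pH 6.5 phosphate, SIF powder) or FeSSIF (pH 5.0 acetate, SIF powder). Samples at 1, 2, 4 and 24 h were centrifuged and 0.45 μm-filtered; filtrate concentration and pH measured, residual solid checked by XRPD.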

[2] = Hygroscopicity by DVS at 25° C.
Procedure: DVS was measured via a SMS (Surface Measurement Systems) DVS Intrinsic. The relative humidity at 25° C. were calibrated against deliquescence point of LiCl, Mg(NO3)2 and KCl.

[3] = Solubility of Meglumine salt Type A in SGF and FaSSIF at 37° C. with adjusting pH to that of the blank medium; settings: for solubility at 2 h / solubility at 4 h: read-out: S (solubility)
Procedure: Detailed procedures are as follows.
1) Added ˜40 mg of sample into a 5-mL glass vial. Add 4 mL of medium. Adjust pH to 1.8 or 6.5 using HCl (1 M) or NaOH (1 M).
2) Rolled at 37° C. (˜25 rpm). Sample at 1, 2, 4 and 24 hrs.
3) At each time-point, sample 0.8 mL of solution or suspension into a centrifuge tube prior to centrifugation (12000 rpm, 37° C., 5 min) and filtration through 0.45 μm PTFE membrane.
4) Adjusted pH of the rest of suspension to 1.8 or 6.5 using HCl (1 M) or NaOH (1 M).

[4] = Approximate solubility in different solvents at RT
Procedure: For each experiment, approximately 2 mg of sample was added into a 3-mL glass vial. Corresponding solvents were then added stepwise (50/50/200/700/1000 μL) into the vials until the solids were dissolved visually or a total volume of 2 mL was reached. Solubility results summarized in Table 64 to Table 66 were used to guide the solvent selection in polymorph screening design.

[5] = Competitive experiments of Type A and Type B in different solvent system at different temperature; settings: different ratio of DMSO/EA system at different temperature
[6] = pH 1.8, simulated gastric fluid, thermodynamic from solid, SGF, pH adjusted to 1.8, 37° C., read-out: solubility in SGF
[7] = pH 6.5, thermodynamic from solid, FaSSIF, pH adjusted to 6.5, 37° C., read-out: solubility in FaSSIF

SMILES: N#Cc1ccc(COc2cccc(C3CCN(Cc4nc5ccc(C(=O)O)cc5n4Cc4cncs4)CC3)n2)c(F)c1 [Meglumine salt Type A]
- S: Solubility ([1]; FaSSIF, 37° C., 1 hr): 900 µg/mL
- FC: Form change ([1]; FaSSIF, 37° C., 1 hr): Yes
- S: Solubility ([1]; FaSSIF, 37° C., 2 hrs): 1300 µg/mL
- FC: Form change ([1]; FaSSIF, 37° C., 2 hrs): Yes
- S: Solubility ([1]; FaSSIF, 37° C., 4 hrs): 720 µg/mL
- FC: Form change ([1]; FaSSIF, 37° C., 4 hrs): Yes
- S: Solubility ([1]; FaSSIF, 37° C., 24 hrs): 70 µg/mL
- FC: Form change ([1]; FaSSIF, 37° C., 24 hrs): Yes
- solubility at 2 h ([1]; FaSSIF, 37 °C, pH 6.5, fassif, thermodynamic from solid, FaSSIF, 37° C., read-out: solubility in FaSSIF): 1300 µg/mL
- S: Solubility ([1]; FeSSIF, 37° C., 1 hr): 170 µg/mL
- FC: Form change ([1]; FeSSIF, 37° C., 1 hr): Yes
- S: Solubility ([1]; FeSSIF, 37° C., 2 hrs): 170 µg/mL
- FC: Form change ([1]; FeSSIF, 37° C., 2 hrs): Yes
- S: Solubility ([1]; FeSSIF, 37° C., 4 hrs): 86 µg/mL
- FC: Form change ([1]; FeSSIF, 37° C., 4 hrs): Yes
- S: Solubility ([1]; FeSSIF, 37° C., 24 hrs): 27 µg/mL
- FC: Form change ([1]; FeSSIF, 37° C., 24 hrs): Yes
- S: Solubility ([1]; H2O, 37° C., 1 hr): >8600 µg/mL
- S: Solubility ([1]; H2O, 37° C., 2 hrs): >8900 µg/mL
- S: Solubility ([1]; H2O, 37° C., 4 hrs): >8300 µg/mL
- S: Solubility ([1]; H2O, 37° C., 24 hrs): 7000 µg/mL
- FC: Form change ([1]; H2O, 37° C., 24 hrs): Yes
- solubility compared with the other selected salts and Freeform Type C ([1]; H2O, SGF and FaSSIF, 37° C.): higher solubility than other salts and Freeform Type C; also recorded: higher solubility in H2O, SGF and FaSSIF
- S: Solubility ([1]; SGF, 37° C., 1 hr): 380 µg/mL
- FC: Form change ([1]; SGF, 37° C., 1 hr): Yes
- S: Solubility ([1]; SGF, 37° C., 2 hrs): 720 µg/mL
- FC: Form change ([1]; SGF, 37° C., 2 hrs): Yes
- S: Solubility ([1]; SGF, 37° C., 4 hrs): 680 µg/mL
- FC: Form change ([1]; SGF, 37° C., 4 hrs): Yes
- S: Solubility ([1]; SGF, 37° C., 24 hrs): 290 µg/mL
- FC: Form change ([1]; SGF, 37° C., 24 hrs): Yes
- solubility at 2 h ([1]; SGF, 37 °C, pH 1.8, simulated gastric fluid, thermodynamic from solid, SGF, 37° C., read-out: solubility in SGF): 720 µg/mL
- form change of residual solids (XRPD) after solubility test ([1]; all the media (H2O, SGF, FaSSIF, FeSSIF), after 24 hrs): form change was observed
- Kinetic Solubility ([1]; in H2O, SGF and FaSSIF, comparison among selected salts and Freeform Type C): 1) In H2O, SGF and FaSSIF, Meglumine salt Type A exhibited higher solubility than other salts and Freeform Type C;
- solubility ([1]; water, 37 °C, thermodynamic from solid, H2O, at 1, 2 and 4 hrs): > 8300 µg/mL
- solubility ([1]; water, 37 °C, thermodynamic from solid, H2O, throughout the 24-hour process): ≥ 7000 µg/mL
- solubility at 24 h ([1]; water, 37 °C, water, thermodynamic from solid, H2O, 37° C., at 24 hrs, read-out: solubility in H2O): 7000 µg/mL
- water uptake (DVS) ([2]; 25° C./80% RH): 1.43%
- hygroscopicity ([2]; DVS, 25° C.): slightly hygroscopic
- Water uptake at 25° C./80% RH ([2]; DVS, 25° C./80% RH): 1.43 wt %
- For change after DVS ([2]; XRPD after DVS test): No
- form change after DVS test (XRPD) ([2]; after DVS test): no form change
- S (solubility) ([3]; SGF, 37° C., pH adjusted to 1.8, 1 hr): 730 µg/mL
- solubility at 2 h ([3]; pH 1.8, simulated gastric fluid, thermodynamic from solid, SGF, 37° C., pH adjusted to 1.8, 2 hrs): 160 µg/mL
- solubility at 4 h ([3]; pH 1.8, simulated gastric fluid, thermodynamic from solid, SGF, 37° C., pH adjusted to 1.8, 4 hrs): 120 µg/mL
- solubility at 1 h [3, 6]: 730 µg/mL
- solubility at 24 h [3, 6]: 140 µg/mL
- solubility at 2 h ([3]; pH 6.5, thermodynamic from solid, FaSSIF, 37° C., pH adjusted to 6.5, 2 hrs): 14 µg/mL
- solubility at 4 h ([3]; pH 6.5, thermodynamic from solid, FaSSIF, 37° C., pH adjusted to 6.5, 4 hrs): 11 µg/mL
- solubility at 1 h [3, 7]: 29 µg/mL
- solubility at 24 h [3, 7]: 6 µg/mL
- Approximate solubility ([4]; 2-MeTHF, RT): S < 1.0 mg/mL
- Approximate solubility ([4]; ACN, RT): S < 1.0 mg/mL
- Approximate solubility ([4]; Acetone, RT): S < 1.1 mg/mL
- Approximate solubility ([4]; Anisole, RT): S < 1.1 mg/mL
- Approximate solubility ([4]; CHCl3, RT): S < 1.0 mg/mL
- Approximate solubility ([4]; CPME, RT): S < 1.0 mg/mL
- Approximate solubility ([4]; DCM, RT): S < 1.1 mg/mL
- Approximate solubility ([4]; EtOAc, RT): S < 1.1 mg/mL
- Approximate solubility ([4]; H2O, RT): S > 44.0 mg/mL
- Approximate solubility ([4]; IPA, RT): S < 1.1 mg/mL
- Approximate solubility ([4]; IPAc, RT): S < 1.0 mg/mL
- Approximate solubility ([4]; MIBK, RT): S < 1.0 mg/mL
- Approximate solubility ([4]; MTBE, RT): S < 1.0 mg/mL
- Approximate solubility ([4]; THF, RT): S < 1.1 mg/mL
- Approximate solubility ([4]; Toluene, RT): S < 1.2 mg/mL
- Approximate solubility ([4]; n-Heptane, RT): S < 1.0 mg/mL
- thermodynamic stability, Type A versus Type B [5]: thermodynamically more stable
